Source: publication PMC11747885, “Potent inhibitors of the human RNA ligase Rlig1 highlights its role in RNA integrity maintenance under oxidative cellular stress” (Chemical Science, 2025)
Where “and” joins values, the source holds several entries; their conditions need not be identical. Identical values can stand only once. Entries after “also recorded” stand apart in the source; their conditions may differ. Marks after values point to notes of the source that are not given here.

Columns and labels:
in vitro = settings: human
HEK293 cells [1] = experiment: Cell viability assay of HEK293 cells treated with inhibitors (CellTiter-Glo)
HEK293 cells [2] = experiment: Cell viability assay of HEK293 cells treated with inhibitors and menadione; format: cell-based, human; settings: for Mean Diff, (Predicted (LS) mean diff,) w/o menadione - w menadione: 2 way ANOVA, Šídák's multiple comparisons test, normalised viability
[3] = as above; format: cell-based, human; settings: human, HEK293 cells, w/o Menadione; for viability at 7.5 µM: 7.5 µM compound; for viability at 15 µM: 15 µM compound; for viability at 30 µM: 30 µM compound; for viability at 60 µM: 60 µM compound
Rlig1-AMP = molecular target: T1, Rlig1-AMP (Homo sapiens, UniProt Q8N999); experiment: Radioactive RNA ligation assay (hit validation, 10 µM test and IC50 determination); format: biochemical
T1 construct: made in house; host or cells: E. coli BL21 (DE3), pET15b-Rlig1

[4] = 20240508 plate 012, DMSO Ko no Mendione = 100
[5] = 20240508 plate 013, DMSO Ko no Mendione = 100
[6] = 20240515 plate 014, DMSO Ko no Mendione = 100
[7] = 20240515 plate 015, DMSO Ko no Mendione = 100
[8] = log(inhibitor) vs. response, variable slope (four parameters)

T1 sequence (Q8N999 whole entry): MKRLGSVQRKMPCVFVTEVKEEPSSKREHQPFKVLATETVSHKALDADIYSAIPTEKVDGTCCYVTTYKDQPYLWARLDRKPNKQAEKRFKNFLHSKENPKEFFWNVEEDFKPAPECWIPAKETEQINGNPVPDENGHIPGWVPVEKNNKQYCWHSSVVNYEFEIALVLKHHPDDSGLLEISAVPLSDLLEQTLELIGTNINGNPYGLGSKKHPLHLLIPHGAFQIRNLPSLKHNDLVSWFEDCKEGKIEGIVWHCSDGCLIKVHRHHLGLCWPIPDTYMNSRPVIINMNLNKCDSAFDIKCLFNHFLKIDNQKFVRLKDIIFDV

Nc1cc(Nc2ccc(NC(=O)c3ccc(Nc4ccnc5ccccc45)cc3)cc2)ccn1 [Compound 36]
viability at 24 h, 0.234375 µM (in vitro): 106% | viability at 24 h, 0.46875 µM (in vitro): 99.9% | viability at 24 h, 0.9375 µM (in vitro): 104% | viability at 24 h, 1.875 µM (in vitro): 99.2% | viability at 24 h, 3.75 µM (in vitro): 93.6% | viability at 24 h, 7.5 µM (in vitro): 93.9% | viability at 24 h, 15 µM (in vitro): 86.8% | viability at 24 h, 30 µM (in vitro): 90.4% | cytotoxicity (in words) (HEK293 cells [1]; HEK293, 24 h, up to 30 μM): no detectable cytotoxicity | IC50 (Figure 3D: EC50 values for plot; log(inhibitor) vs. response -- Variable slope (four parameters)) (HEK293 cells [1]; HEK293 cell viability, fit per plate (3 plates, 4 technical replicates each), highest tested concentration 30 µM): 2607.3 µM and 1652.85 µM and 299.495 µM | LogIC50 (log(inhibitor) vs. response -- Variable slope (four parameters)) (HEK293 cells [1]; HEK293 cell viability, fit per plate (3 plates, 4 technical replicates each), log of [µM]): 3.416 and 3.218 and 2.476 | EC50 (HEK293 cells [1]; Homo sapiens, HEK293, 24 h): > 30 µM | Mean Diff, (Predicted (LS) mean diff,) w/o menadione - w menadione (HEK293 cells [2]; 7.5 µM compound): 8.308 | Cell viability raw signal, technical replicates (HEK293 cells [2]; 7.5 µM compound, w Menadione (40µM), 20240508 plate 012): 27030 and 23198 and 28223 and 26549 | Cell viability raw signal, technical replicates (HEK293 cells [2]; 7.5 µM compound, w Menadione (40µM), 20240508 plate 013): 27603 and 23558 and 27792 and 26913 | Cell viability raw signal, technical replicates (HEK293 cells [2]; 7.5 µM compound, w Menadione (40µM), 20240515 plate 014): 28096 and 25755 and 28850 and 30838 | Cell viability raw signal, technical replicates (HEK293 cells [2]; 7.5 µM compound, w Menadione (40µM), 20240515 plate 015): 27895 and 33778 and 30188 and 31212 | Cell viability raw signal, technical replicates (HEK293 cells [2]; 7.5 µM compound, w/o Menadione, 20240508 plate 012): 385210 and 396370 and 371980 and 372320 | Cell viability raw signal, technical replicates (HEK293 cells [2]; 7.5 µM compound, w/o Menadione, 20240508 plate 013): 405510 and 393590 and 402690 and 387370 | Cell viability raw signal, technical replicates (HEK293 cells [2]; 7.5 µM compound, w/o Menadione, 20240515 plate 014): 380800 and 387250 and 402000 and 397370 | Cell viability raw signal, technical replicates (HEK293 cells [2]; 7.5 µM compound, w/o Menadione, 20240515 plate 015): 356280 and 367960 and 366010 and 366080 | Mean Diff, (Predicted (LS) mean diff,) w/o menadione - w menadione (HEK293 cells [2]; 15 µM compound): 17.8 | Cell viability raw signal, technical replicates (HEK293 cells [2]; 15 µM compound, w Menadione (40µM), 20240508 plate 012): 22111 and 21413 and 21368 and 22937 | Cell viability raw signal, technical replicates (HEK293 cells [2]; 15 µM compound, w Menadione (40µM), 20240508 plate 013): 69935* and 23670 and 27045 and 22274 | Cell viability raw signal, technical replicates (HEK293 cells [2]; 15 µM compound, w Menadione (40µM), 20240515 plate 014): 28312 and 27245 and 29168 and 29878 | Cell viability raw signal, technical replicates (HEK293 cells [2]; 15 µM compound, w Menadione (40µM), 20240515 plate 015): 27690 and 32043 and 28425 and 26586 | Mean Diff, (Predicted (LS) mean diff,) w/o menadione - w menadione (HEK293 cells [2]; 30 µM compound): 11.65 | Cell viability raw signal, technical replicates (HEK293 cells [2]; 30 µM compound, w Menadione (40µM), 20240508 plate 012): 24245 and 20350 and 24935 and 20723 | Cell viability raw signal, technical replicates (HEK293 cells [2]; 30 µM compound, w Menadione (40µM), 20240508 plate 013): 21997 and 20914 and 24666 and 21857 | Cell viability raw signal, technical replicates (HEK293 cells [2]; 30 µM compound, w Menadione (40µM), 20240515 plate 014): 26699 and 30187 and 27245 and 26622 | Cell viability raw signal, technical replicates (HEK293 cells [2]; 30 µM compound, w Menadione (40µM), 20240515 plate 015): 24014 and 26245 and 23994 and 40225 | Cell viability raw signal, technical replicates (HEK293 cells [2]; 30 µM compound, w/o Menadione, 20240508 plate 012): 348650 and 347840 and 366110 and 365510 | Mean Diff, (Predicted (LS) mean diff,) w/o menadione - w menadione (HEK293 cells [2]; 60 µM compound): 4.361 | Cell viability raw signal, technical replicates (HEK293 cells [2]; 60 µM compound, w Menadione (40µM), 20240508 plate 012): 158210* and 163010* and 19082* and 18545* | Cell viability raw signal, technical replicates (HEK293 cells [2]; 60 µM compound, w Menadione (40µM), 20240508 plate 013): 166210* and 174600* and 20028* and 18681* | Cell viability raw signal, technical replicates (HEK293 cells [2]; 60 µM compound, w Menadione (40µM), 20240515 plate 014): 33336 and 33031 and 28059 and 24828 | Cell viability raw signal, technical replicates (HEK293 cells [2]; 60 µM compound, w Menadione (40µM), 20240515 plate 015): 185100* and 184480* and 111650* and 66878* | Cell viability raw signal, technical replicates (HEK293 cells [2]; 60 µM compound, w/o Menadione, 20240508 plate 012): 344220 and 331510 and 355900 and 344190 | Cell viability raw signal, technical replicates (HEK293 cells [2]; 60 µM compound, w/o Menadione, 20240508 plate 013): 348460 and 354210 and 355750 and 353860 | Cell viability raw signal, technical replicates (HEK293 cells [2]; 60 µM compound, w/o Menadione, 20240515 plate 014): 336500 and 373330 and 357790 and 375230 | Cell viability raw signal, technical replicates (HEK293 cells [2]; 60 µM compound, w/o Menadione, 20240515 plate 015): 321900 and 321160 and 330420 and 326560 | viability at 7.5 µM [3, 4]: 91% | viability at 7.5 µM [3, 5]: 101% | viability at 7.5 µM [3, 6]: 96% | viability at 7.5 µM [3, 7]: 89% | viability at 15 µM [3, 4]: 98.9% | viability at 15 µM [3, 5]: 99.3% | viability at 15 µM [3, 6]: 94.8% | viability at 15 µM [3, 7]: 94.9% | viability at 30 µM [3, 4]: 85.2% | viability at 30 µM [3, 5]: 98.7% | viability at 30 µM [3, 6]: 89.7% | viability at 30 µM [3, 7]: 81.9% | viability at 60 µM [3, 4]: 82.1% | viability at 60 µM [3, 5]: 89.4% | viability at 60 µM [3, 6]: 88.4% | viability at 60 µM [3, 7]: 79.5% | inhibition of Rlig1-AMP ligation (urea-PAGE) (Rlig1-AMP; 10 μM compound, 500 nM Rlig1-AMP, 20 min 37 °C): Ligation was inhibited; also recorded: fully inhibited | HillSlope (best-fit value) (Rlig1-AMP; four-parameter fit): 3.369 | Span (best-fit value) (Rlig1-AMP; four-parameter fit): 96.63 | IC50 (Rlig1-AMP; four-parameter fit, n = 3, read-out: IC50 (best-fit value)): 3.86 µM | inhibition at 30 µM (Rlig1-AMP; log Compound [µM] 1.47712, replicates I-III, read-out: percentage inhibition (dose response curve for IC50)): 100% | inhibition at 0.9375 µM (Rlig1-AMP; log Compound [µM] -0.0280287, replicates I-III, read-out: percentage inhibition (dose response curve for IC50)): 5.58% | inhibition at 0.46875 µM (Rlig1-AMP; log Compound [µM] -0.329059, replicates I-III, read-out: percentage inhibition (dose response curve for IC50)): 2.58% | LogIC50 (best-fit value) (Rlig1-AMP; log of µM, four-parameter fit): 0.5866 | Bottom (best-fit value) (Rlig1-AMP; [8]): 4.368 | Top (best-fit value) (Rlig1-AMP; [8]): 101
